Results on 22 compounds are retold here after US10292390B2, “Inhibition and dispersion of bacterial biofilms with 2-aminobenzimidazole derivatives” (WISCONSIN ALUMNI RESEARCH FOUNDATION, priority 2011, dated 2019).

Read-outs that look alike come from different tables or passages of the source.

Assay [1] relates to P. aeruginosa PAO1 biofilm. Briefly: crystal violet static biofilm inhibition assay. It counts as cell-based, Pseudomonas aeruginosa. Particulars: for IC50: Pseudomonas aeruginosa, PAO1; for inhibition of biofilm growth: at 100 micro M, 24 h; for anti-biofilm (biofilm inhibitory) activity in words: initial screen at 500 μM, 12 and 24 h. The procedure: Stilbenes 1, 2, and 4a-b were tested for inhibition of biofilm formation in a wild-type P. aeruginosa strain (PAO1) at 500 μM using standard static biofilm growth assays.
Biofilms were grown in a modified M9 minimal media in 96-well microtiter plates, and crystal violet staining of the surface-associated biomass was used to quantify biofilm growth at 12 and 24 h (see The Examples).
A modified version of the widely used crystal violet (CV) microtiter plate biofilm assay, first described by Christensen et al. and later popularized by O'Toole et al., [57] was used in this study and is described in detail below.
Compounds to be evaluated for biofilm modulatory activity were added to the assay microtiter plates by means of a “solvent evaporation” delivery. This delivery method involves preparation of compound stock solutions, addition of stocks to microtiter plates at appropriate volumes to obtain target molar quantities per well, evaporation of the solvent, and re-solubilization of the compound in the final assay medium upon inoculum addition. This delivery method was adopted to avoid the biofilm inhibitory effects observed with an “organic solvent-to-solution” delivery method (e.g., DMSO-to-media; data not shown), which is more commonly done in small molecule screens. EtOH was chosen as the solvent for solvent evaporation delivery in this study based on the chemical resistance limitations of polystyrene microtiter plates. Prior to each experiment, EtOH stock solutions of compounds being evaluated were prepared, diluted, and added to microtiter plates at varied volumes to obtain a target final concentration per well upon inoculum addition. Plates were incubated at 37° C. to evaporate EtOH and sterilized in a Baker SterilGARD III Advance Biological Safety Cabinet by UV-C germicidal irradiation for 30 min (lids removed). EtOH only was added to wells designated as “no compound” positive controls (Pos. Con.) and “no bacteria” negative controls (note, controls lacking bacteria yielded no significant staining in the CV assay (data not shown)). The outer wells were never used for test samples as evaporation and significant deviations in growth were observed; thus, outer wells were filled with sterile 18 MΩ H2O to minimize these effects.
Bacterial samples for biofilm assessment were prepared by first streaking a freezer stock of P. aeruginosa PAO1 on an LB/agar plate and incubating at 37° C. for ˜16 h. Single colonies were selected and used to inoculate LB medium (10 mL) in a 25 mL Erlenmeyer flask. The culture was grown on an incubator-shaker (200 rpm) at 37° C. for ˜16 h to an OD600 of ˜1.0. Overnight cultures were gently decanted into falcon tubes to minimize transfer of biofilm produced during overnight growth. An inoculating culture was prepared by centrifuging an aliquot of overnight culture at 3,000 rpm for 10 min, removal of the supernatant, and then re-suspending the pellet in 95:5 M9+:LB at 10-fold the initial volume (effecting a 1-in-10 dilution; OD600 ˜0.1-0.2). Using a multi-channel pipette, this culture was added to test microtiter plates in 200 μL aliquots. The well contents were mixed using a 10 μL multi-channel pipette in a swirling motion; insoluble compound samples were noted and later excluded from the data set as needed.
Plates were covered with the provided lid and incubated statically at 37° C. for 12-24 h. Maximal biofilm formation is obtained at 24 h, after which the amount of biofilm declines unless fresh nutrients are provided. After incubation, the OD600 was measured, and the bacterial suspension was removed by inverting and shaking the plate over a waste pan and then taping on a paper towel (process termed “dumping”). Non-biofilm associated biomaterial was removed by adding 225 μL PBS and dumping (process termed “washing”) and then repeating this washing process. Biofilm was fixed to the microtiter plates by uncovering the plate and thermally dehydrating at 37° C. […]

The subject of assay [2] is Gram-positive bacteria. Particulars: WO 2010/144686 (7); ref. 34 (18); cited from earlier work.
Setting [3] is: 12 h incubation, CV assay, read-out: 12 h biofilm IC50.
The mark [4] stands for this setting: 24 h incubation, CV assay, read-out: 24 h biofilm IC50.
Setting [5] is: Table 1, crystal violet, read-out: IC50, P. aeruginosa PAO1 biofilm inhibition.

In the case of `Nc1nc2ccc(/C=C/c3ccccc3)cc2[nH]1` [Compound 1, 6-Styryl-2-aminobenzimidazole], the IC50 (as a rule, the point on the concentration scale where inhibition reaches its midpoint) in assay [1] (setting [3]) is 13 µM; in assay [1] (setting [4]) it was 8.9 µM. Also, the “inhibition of biofilm growth” value in assay [1] is 56%.

For the compound `Nc1nc(-c2ccc(/C=C/c3ccccc3)cc2)c[nH]1` [Compound 2, 4-(E)-Stilbene-2-aminoimidazole], the IC50 in assay [1] (setting [3]) was 3.8 µM; in assay [1] (setting [4]), 18 µM. Further, in assay [1], the “inhibition of biofilm growth” value turned out to be 48%.

Regarding `S=c1[nH]c2ccccc2[nH]1` [Compound 2-TBI, 2-thiobenzamidazole, reference compound], the “anti-biofilm (biofilm inhibitory) activity in words” value in assay [1] is reported as “significantly less active than 2-ABI derivatives”.

With `C(=C\c1ccc2[nH]ccc2c1)/c1ccccc1` [Compound 4a, 5-Styryl-1H-indole], the “anti-biofilm (biofilm inhibitory) activity in words” value in assay [1] is given as “Neither indole, derivative (4a-b), however, showed appreciable anti-biofilm activity”.

For `C(=C\c1ccc2cc[nH]c2c1)/c1ccccc1` [Compound 4b, 6-Styryl-1H-indole], the “anti-biofilm (biofilm inhibitory) activity in words” value in assay [1] is “Neither indole, derivative (4a-b), however, showed appreciable anti-biofilm activity”.

`C(=C\c1ccc2nc[nH]c2c1)/c1ccccc1` [Compound 5, 6-Styryl-1H-benzimidazole]: in assay [1], the “anti-biofilm (biofilm inhibitory) activity in words” value is reported as “complete loss of inhibitory activity”.

`COc1ccc2[nH]c(=S)[nH]c2c1` [Compound 5-OMe-2-TBI, reference compound]: the “anti-biofilm (biofilm inhibitory) activity in words” value in assay [1] was “significantly less active than 2-ABI derivatives”.

On to `C(=Cc1ccccc1)c1ccccc1` [Compound 6, Stilbene, reference compound], for which the “anti-biofilm (biofilm inhibitory) activity in words” value in assay [1] is given as “complete loss of inhibitory activity”.

Turning to `Nc1ncc[nH]1` [Compound 8, 2-aminoimidazole, reference compound], the “anti-biofilm (biofilm inhibitory) activity in words” value in assay [1] is listed as “neither 2-AI (8) nor guanidine (9) was found to display significant inhibitory activity”.

As to `N=C(N)N` [Compound 9, Guanidine, reference compound], in assay [1], the “anti-biofilm (biofilm inhibitory) activity in words” value is “neither 2-AI (8) nor guanidine (9) was found to display significant inhibitory activity”.

Regarding `Nc1nc2cc(I)ccc2[nH]1` [Compound 10, 5-Iodo-2-aminobenzimidazole], the values for the IC50 in assay [1] (setting [3]), in assay [1] (setting [4]) and in assay [1] (setting [5]) were 26.3 µM, 20.3 µM and 20 µM, respectively.

As to `Nc1nc2cc(Br)ccc2[nH]1` [Compound 11, 5-Bromo-2-aminobenzimidazole], the IC50 in assay [1] (setting [3]) is 22 µM; in assay [1] (setting [4]), 22.2 µM; in assay [1] (setting [5]), 22 µM.

As for `Nc1nc2cc(Cl)ccc2[nH]1` [Compound 12, 5-Chloro-2-aminobenzimidazole], the IC50 amounted to 25.7 µM in assay [1] (setting [3]), 27.5 µM in assay [1] (setting [4]) and 28 µM in assay [1] (setting [5]).

Regarding `Nc1nc2cc(F)ccc2[nH]1` [Compound 13, 5-Fluoro-2-aminobenzimidazole], the IC50 in assay [1] (setting [3]) stood at 30.2 µM; in assay [1] (setting [4]) it was 35.2 µM; in assay [1] (setting [5]), 35 µM.

In the case of `COC(=O)c1ccc2[nH]c(N)nc2c1` [Compound 15, 5-Carboxylic acid methyl ester-2-aminobenzimidazole], the IC50 in assay [1] (setting [3]) was 186 µM; in assay [1] (setting [4]), 139 µM; in assay [1] (setting [5]), 140 µM.

In the case of `Nc1nc2cc(C(=O)O)ccc2[nH]1` [Compound 16, 5-Carboxylic acid-2-aminobenzimidazole], the “anti-biofilm (biofilm inhibitory) activity in words” value in assay [1] is given as “total loss”.

Consider `N#Cc1ccc2[nH]c(N)nc2c1` [Compound 17, 5-Cyano-2-aminobenzimidazole], for which the IC50 in assay [1] (setting [3]) worked out at 199 µM; in assay [1] (setting [4]) it was 175 µM; in assay [1] (setting [5]), 180 µM.

Turning to `Nc1nc2cc([N+](=O)[O-])ccc2[nH]1` [Compound 18, 5-Nitro-2-aminobenzimidazole], the figures for the IC50 in assay [1] (setting [3]), in assay [1] (setting [4]) and in assay [1] (setting [5]) were 49.6 µM, 63.1 µM and 63 µM, respectively. Further, the “biofilm inhibition in Gram-positive bacteria as reported” value in assay [2] is “reported to be a biofilm inhibitor in Gram-positive bacteria”.

`Cc1cccc2[nH]c(N)nc12` [Compound 19, 4-Methyl-2-aminobenzimidazole]: the IC50 in assay [1] (setting [3]) was 37.6 µM; in assay [1] (setting [4]), 38.7 µM; in assay [1] (setting [5]) it was 39 µM.

In the case of `Cc1ccc2[nH]c(N)nc2c1` [Compound 20, 5-Methyl-2-aminobenzimidazole], the IC50 in assay [1] (setting [3]) was 27.3 µM; in assay [1] (setting [4]), 25.4 µM; in assay [1] (setting [5]), 25 µM.

As to `COc1ccc2[nH]c(N)nc2c1` [Compound 22, 5-Methoxy-2-aminobenzimidazole], the IC50 in assay [1] (setting [3]) came out at 73.8 µM; in assay [1] (setting [4]), 80.1 µM; in assay [1] (setting [5]), 80 µM.

Take `Nc1nc2cc3ccccc3cc2[nH]1` [Compound 24, 2-Amino-1H-naphtho[2,3-d]imidazole]: the IC50 in assay [1] (setting [3]) turned out to be 54.5 µM; in assay [1] (setting [4]) it was 48.3 µM; in assay [1] (setting [5]), 48 µM.
